Reference: patent US8192962B2, “Processes for detecting toxic substances” (Daikin Industries, Ltd., priority 2001, dated 2012)

Tested on: Metabolism protein genes
Assay: DNA chip mRNA expression in yeast, metabolism protein genes (Table 7)
Assay type: cell-based, Saccharomyces cerevisiae S288C
Protocol: Yeast (Saccharomyces cerevisiae S288C (α SUC2mal mel gap2 CUP1)) were incubated at 25° C. on YPD medium (yeast extract 1%, polypepton 2%, glucose 2%). One of toxic chemical substances was added to the cells at logarithmic growth phase, and the cells were further incubated for two hours. Cells were cultured without any chemical substance in the same condition, and were used as control. Concentrations of the chemical substances were defined to inhibit the growth of the yeast but not lead to death.
After completion of the incubation, the culture was centrifuged to collect the cells. To the cells, sodium acetate buffer (50 mM sodium acetate, 10 mM EDTA, 1% SDS) was added, and the mixture was shaken at 65° C. for five minutes, followed by returning to room temperature, and obtaining the supernatant, of which the procedures were repeated two times. To the supernatant, ½ amount of a solution of phenol/chloroform was added, and the mixture was centrifuged to give a supernatant, which was added with an equal amount of chloroform, and the mixture was centrifuged to give a supernatant. To the supernatant, an equal amount of isopropanol containing 0.3 M sodium acetate was added, and the mixture was allowed to stand at room temperature for 30 minutes, after which the mixture was centrifuged to give a sediment of the whole RNAs. Seventy % ethanol was added to the sediment, and the mixture was again centrifuged to give a sediment, which was then dried and dissolved in water. mRNA was isolated from the whole RNAs as followings. In view of the fact that a poly A chain is attached to the 3′ terminus of mRNA, a polynucleotide having a poly T structure which was immobilized on the surface of latex beads was used to trap the mRNA, and then the mRNA was washed and eluted with spine column (Oligotex-dT30<Super>mRNA Purification Kit, Takara). Reverse transcription of the mRNA was conducted with a reverse transcriptase (Super Script II Reverse Transcriptase; catalogue No. 18064-014, GibcoBRL) using fluorescence-labeled nucleotides to give cDNAs that were introduced with Cy3-dUTP or Cy5-dUTP during the reverse transcription.
The labeled cDNAs were dissolved in TE buffer (10mM Tris-HCl/1 mM EDTA, pH8.0), and the solution was dropped on the DNA chip containing the whole genes of yeast (DNA Chip Research Inc. Japan) so that the cDNAs were hybridized on the DNA chip at 65° C. for over 12 hours. The fluoresces intensity of the DNA chip was read with a scanner, and the ratio relative to the fluorescence intensity resulting from the absence of chemical substance was estimated as the following, which is shown in Tables 1 to 9: […]

In the case of O=[N+]([O-])c1cc[n+]([O-])c2ccccc12 [(5), 4-nitroquinolin-N-oxide], the “The level of expressed mRNA in the presence of chemical substance/The level of expressed mRNA in the absence of chemical substance” value (yeast gene YFL056C) is reported as 0.9, the “The level of expressed mRNA in the presence of chemical substance/The level of expressed mRNA in the absence of chemical substance” value (yeast gene YFL057C) is reported as 0.9 and the “The level of expressed mRNA in the presence of chemical substance/The level of expressed mRNA in the absence of chemical substance” value (yeast gene YFR047C) is reported as 1.2. For the same compound, the “level of expressed mRNA in the presence/in the absence of chemical substance” value (yeast gene YGL012W) was 1.5, the “The level of expressed mRNA in the presence of chemical substance/The level of expressed mRNA in the absence of chemical substance” value (yeast gene YGL022W) was 1.0 and the “level of expressed mRNA in the presence/in the absence of chemical substance” value (yeast gene YGL115W) was 1.2. For the same compound, the “The level of expressed mRNA in the presence of chemical substance/The level of expressed mRNA in the absence of chemical substance” value (yeast gene YGL126W) was 1.1, the “level of expressed mRNA in the presence/in the absence of chemical substance” value (yeast gene YGL205W) was 1.1 and the “The level of expressed mRNA in the presence of chemical substance/The level of expressed mRNA in the absence of chemical substance” value (yeast gene YGL209W) was 0.7. The “The level of expressed mRNA in the presence of chemical substance/The level of expressed mRNA in the absence of chemical substance” value (yeast gene YGL248W) was 1.3, the “The level of expressed mRNA in the presence of chemical substance/The level of expressed mRNA in the absence of chemical substance” value (yeast gene YGR037C) was 1.0 and the “The level of expressed mRNA in the presence of chemical substance/The level of expressed mRNA in the absence of chemical substance” value (yeast gene YGR055W) was 1.3. For the same compound, the “level of expressed mRNA in the presence/in the absence of chemical substance” value (yeast gene YGR096W) was 1.2, the “level of expressed mRNA in the presence/in the absence of chemical substance” value (yeast gene YGR191W) was 0.8 and the “The level of expressed mRNA in the presence of chemical substance/The level of expressed mRNA in the absence of chemical substance” value (yeast gene YGR194C) was 0.8. For the same compound, the “level of expressed mRNA in the presence/in the absence of chemical substance” value (yeast gene YGR204W) was 0.6, the “The level of expressed mRNA in the presence of chemical substance/The level of expressed mRNA in the absence of chemical substance” value (yeast gene YGR256W) was 0.9 and the “The level of expressed mRNA in the presence of chemical substance/The level of expressed mRNA in the absence of chemical substance” value (yeast gene YGR282C) was 1.0. The “level of expressed mRNA in the presence/in the absence of chemical substance” value (yeast gene YGR288W) was 0.8, the “level of expressed mRNA in the presence/in the absence of chemical substance” value (yeast gene YHR025W) was 0.9 and the “The level of expressed mRNA in the presence of chemical substance/The level of expressed mRNA in the absence of chemical substance” value (yeast gene YHR111W) was 1.5. For the same compound, the “The level of expressed mRNA in the presence of chemical substance/The level of expressed mRNA in the absence of chemical substance” value (yeast gene YHR137W) was 1.0, the “The level of expressed mRNA in the presence of chemical substance/The level of expressed mRNA in the absence of chemical substance” value (yeast gene YHR174W) was 1.3 and the “The level of expressed mRNA in the presence of chemical substance/The level of expressed mRNA in the absence of chemical substance” value (yeast gene YHR176W) was 1.0. For the same compound, the “level of expressed mRNA in the presence/in the absence of chemical substance” value (yeast gene YHR210C) was 1.8, the “level of expressed mRNA in the presence/in the absence of chemical substance” value (yeast gene YIL006W) was 0.8 and the “The level of expressed mRNA in the presence of chemical substance/The level of expressed mRNA in the absence of chemical substance” value (yeast gene YIL045W) was 1.3. For the same compound, the “The level of expressed mRNA in the presence of chemical substance/The level of expressed mRNA in the absence of chemical substance” value (yeast gene YIL107C) was 0.8, the “The level of expressed mRNA in the presence of chemical substance/The level of expressed mRNA in the absence of chemical substance” value (yeast gene YIL154C) was 0.9 and the “The level of expressed mRNA in the presence of chemical substance/The level of expressed mRNA in the absence of chemical substance” value (yeast gene YIL155C) was 1.3. For the same compound, the “The level of expressed mRNA in the presence of chemical substance/The level of expressed mRNA in the absence of chemical substance” value (yeast gene YIL167W) was 1.0, the “The level of expressed mRNA in the presence of chemical substance/The level of expressed mRNA in the absence of chemical substance” value (yeast gene YIR031C) was 1.6 and the “The level of expressed mRNA in the presence of chemical substance/The level of expressed mRNA in the absence of chemical substance” value (yeast gene YIR034C) was 1.1. The “The level of expressed mRNA in the presence of chemical substance/The level of expressed mRNA in the absence of chemical substance” value (yeast gene YIR036C) was 0.9, the “The level of expressed mRNA in the presence of chemical substance/The level of expressed mRNA in the absence of chemical substance” value (yeast gene YJL031C) was 1.7 and the “The level of expressed mRNA in the presence of chemical substance/The level of expressed mRNA in the absence of chemical substance” value (yeast gene YJL068C) was 0.7. For the same compound, the “The level of expressed mRNA in the presence of chemical substance/The level of expressed mRNA in the absence of chemical substance” value (yeast gene YJL088W) was 0.9, the “The level of expressed mRNA in the presence of chemical substance/The level of expressed mRNA in the absence of chemical substance” value (yeast gene YJL099W) was 1.9 and the “level of expressed mRNA in the presence/in the absence of chemical substance” value (yeast gene YJL121C) was 1.0. The “level of expressed mRNA in the presence/in the absence of chemical substance” value (yeast gene YJL167W) was 0.7, the “The level of expressed mRNA in the presence of chemical substance/The level of expressed mRNA in the absence of chemical substance” value (yeast gene YJL172W) was 0.9 and the “level of expressed mRNA in the presence/in the absence of chemical substance” value (yeast gene YJL216C) was 0.8. For the same compound, the “The level of expressed mRNA in the presence of chemical substance/The level of expressed mRNA in the absence of chemical substance” value (yeast gene YJL219W) was 1.2, the “level of expressed mRNA in the presence/in the absence of chemical substance” value (yeast gene YJR077C) was 0.9 and the “The level of expressed mRNA in the presence of chemical substance/The level of expressed mRNA in the absence of chemical substance” value (yeast gene YJR137C) was 0.6. The “level of expressed mRNA in the presence/in the absence of chemical substance” value (yeast gene YJR143C) was 1.6.
